Laboratory results as given in PMC9611727, “Optimization of a Novel Mandelamide-Derived Pyrrolopyrimidine Series of PERK Inhibitors” (Pharmaceutics, 2022).

Key:
p-STAT5 = experiment: FLT3-ITD downstream signaling, p-STAT5 western blot in MV4-11 cells; type: cell-based; details: Homo sapiens, normalized to Crenolanib, read-out: pSTAT5 IC50
Method: (§1) MV-4-11 and EoL-1 were plated at a density 20,000 cells/well in a 96 well plate. Cells were incubated with DMSO, 1 µM docetaxel, or an 8-pt, 2-fold dose response of 26 in quadruplicate. On day 3 and day 7, cells from DMSO-treated wells were counted and cells from all wells were split back so that the DMSO-treated wells matched the original seeding density. Cells were centrifuged in 96 well filter plates (Sigma) and resuspended in fresh compound-containing media.
(§2) On day 10, cells were incubated with alamarBlue™ HS Cell Viability Reagent (Invitogen) (10 µL of alamarBlue in a well of 90 µL media) for 2 hours at 37C/5% CO2. Fluorescence was measured on the EnVision Plate reader (Perkin Elmer) at an ex/em of 560/590 nm. Raw fluorescence values were normalized to positive and negative controls (DMSO, 1 µM docetaxel) to get a % viability. Replicates were averaged and dose responses were plotted on a 4 Parameter Logistic […]
(§3) MV-4-11 cells were plated in 6 well plates overnight in reduced serum media (IMDM + 0.5% FBS). The following day, compound or vehicle were added to the plate for a final DMSO concentration of 0.1% and incubated at 37 C for 2 hours.
(§4) Cells were washed with 1X PBS (Gibco 10010-023), and lysed in RIPA buffer with added inhibitors. Protein concentration was determined using a BCA assay (Thermo Scientific 23225). […]

[1] = PK of 26 in plasma and pancreas of BALB/c nude mice; type: in vivo, mouse; details: 0.3 to 30 mg/kg single oral gavage
Method: (§5) For PK analysis of pyrrolopyrimidine analogs in mouse, rat, and dog plasma, the oral formulation was prepared as a solution containing 20% (w/v) Captisol in 25 mM NaH2PO4 buffer (pH 2). Compounds were administered orally by gavage at 10 mg/kg to female CD1 mice. After dosing, plasma samples were collected to characterize the PK profiles at 0.25, 0.5, 1, 2, 4, 8, 12 and 24 h post-dose. The plasma concentration of compound was determined by protein precipitation with acetonitrile and liquid chromatography with mass spectrometric detection (LC-MS/MS). Parameters were estimated using Phoenix (WinNonlin) pharmacokinetic software version 6.1.0 using a non-compartmental approach consistent with the oral route of administration. PK analysis of 26 in plasma and pancreas followed a similar analytical method as above, with minor modifications. Compound 26 was suspended in a vehicle consisting of 0.5% methylcellulose (400 cP) and 0.1% Tween80 in water and administered to BALB/c nude mice by oral gavage at 0.3, 1, 3, 10, 30 mg/kg. Plasma and pancreas were sampled from 5 mice per group following a single oral administration at 1, 4, 8, 12, 24 h post-dose.

MOLM-13 (FLT3-ITD) = experiment: Cell viability assay, MOLM-13; type: cell-based; details: Homo sapiens
GCN2 = target: T1, GCN2 (Homo sapiens, UniProt Q9P2K8); experiment: ISR kinase cell-free biochemical assay (Carna), GCN2; details: ATP 150 µM
T1 construct: purchased Carna 05-153
T1 sequence (Q9P2K8 whole entry): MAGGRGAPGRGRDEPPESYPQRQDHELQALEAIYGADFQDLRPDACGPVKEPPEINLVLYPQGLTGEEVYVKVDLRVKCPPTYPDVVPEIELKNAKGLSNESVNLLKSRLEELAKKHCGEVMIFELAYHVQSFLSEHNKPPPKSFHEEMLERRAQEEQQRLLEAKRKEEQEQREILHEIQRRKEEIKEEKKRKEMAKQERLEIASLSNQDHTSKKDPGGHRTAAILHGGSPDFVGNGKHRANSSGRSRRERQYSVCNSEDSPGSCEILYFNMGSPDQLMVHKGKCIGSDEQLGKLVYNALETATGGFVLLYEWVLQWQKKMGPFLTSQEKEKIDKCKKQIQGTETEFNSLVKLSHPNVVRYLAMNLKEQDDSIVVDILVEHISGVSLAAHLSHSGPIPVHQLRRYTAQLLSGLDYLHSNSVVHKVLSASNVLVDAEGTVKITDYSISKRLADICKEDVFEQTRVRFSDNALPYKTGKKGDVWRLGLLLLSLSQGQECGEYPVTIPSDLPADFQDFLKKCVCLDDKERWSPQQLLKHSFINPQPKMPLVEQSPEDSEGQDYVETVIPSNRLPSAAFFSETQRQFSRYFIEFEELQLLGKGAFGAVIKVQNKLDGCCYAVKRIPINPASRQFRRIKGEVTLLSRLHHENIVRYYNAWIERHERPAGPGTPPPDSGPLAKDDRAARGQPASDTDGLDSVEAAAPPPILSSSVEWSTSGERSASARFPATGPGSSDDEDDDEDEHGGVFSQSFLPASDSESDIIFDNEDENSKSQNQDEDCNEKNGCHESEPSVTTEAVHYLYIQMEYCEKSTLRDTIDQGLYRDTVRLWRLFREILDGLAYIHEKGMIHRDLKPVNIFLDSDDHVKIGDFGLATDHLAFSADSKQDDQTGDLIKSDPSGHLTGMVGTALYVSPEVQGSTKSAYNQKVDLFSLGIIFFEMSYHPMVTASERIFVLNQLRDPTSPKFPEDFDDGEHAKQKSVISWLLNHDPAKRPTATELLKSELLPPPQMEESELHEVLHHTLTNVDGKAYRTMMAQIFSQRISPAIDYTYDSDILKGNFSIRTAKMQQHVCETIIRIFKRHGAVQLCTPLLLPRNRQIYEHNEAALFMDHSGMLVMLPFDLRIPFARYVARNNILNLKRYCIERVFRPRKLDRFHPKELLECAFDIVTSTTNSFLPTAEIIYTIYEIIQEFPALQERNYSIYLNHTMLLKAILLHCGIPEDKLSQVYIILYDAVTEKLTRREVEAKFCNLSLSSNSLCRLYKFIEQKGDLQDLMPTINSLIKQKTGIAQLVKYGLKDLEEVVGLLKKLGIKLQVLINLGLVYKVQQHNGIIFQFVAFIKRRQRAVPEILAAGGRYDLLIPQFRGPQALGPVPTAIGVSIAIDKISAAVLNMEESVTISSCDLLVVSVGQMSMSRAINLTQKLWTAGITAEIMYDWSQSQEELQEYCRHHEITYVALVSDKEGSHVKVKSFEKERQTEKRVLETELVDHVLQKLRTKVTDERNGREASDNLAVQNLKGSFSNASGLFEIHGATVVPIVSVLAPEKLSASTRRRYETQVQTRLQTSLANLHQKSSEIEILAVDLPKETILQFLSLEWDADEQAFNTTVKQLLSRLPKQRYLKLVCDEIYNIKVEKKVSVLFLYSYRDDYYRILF
Method: (§6) In brief, 26 was dissolved in DMSO and serially diluted 3-fold to generate concentrations ranging from 10 µM to 0.2 nM in a 384-well plate using a TECAN EVO200 automated liquid handler. 10 nL stock solution was transferred into each well of a 384well assay plate by an Echo550 and an equivalent volume of DMSO was added to the control wells. To each assay well, recombinant protein was suspended in 20 µL reaction buffer (listed below) and incubated at 25 °C for 1.5 h while shaking at 1250 rpm. Following incubation, 10 µL of a FRET dilution buffer including 20 mM EDTA and 4 nM Tb-anti-peIF2a [pSer51] (Invitrogen, Cat# PV4815) was added to each well and incubated at 25 °C for 2 h while shaking at 600 rpm in the dark. Analysis was performed using an Envision Microplate Reader (PerkinElmer).

MV4-11 (FLT3-ITD) = experiment: Cell viability assay, MV4-11; type: cell-based; details: Homo sapiens
Method: as §1, §2, §3, §4

phosphoPERK (T980) = experiment: PERK autophosphorylation (pPERK/PERK) in mouse pancreas after oral dosing; type: in vivo; details: 30 mg/kg oral, 1 h
Method: as §5
Total protein was extracted from pancreas tissues sampled during PK studies described above. […]

PERK = target: T2, PERK (Homo sapiens, UniProt Q9NZJ5); experiment: ISR kinase cell-free biochemical assay (Carna), PERK; details: ATP 8 µM
T2 construct: purchased Carna 05-155
T2 sequence (Q9NZJ5 563-1116 limits assumed): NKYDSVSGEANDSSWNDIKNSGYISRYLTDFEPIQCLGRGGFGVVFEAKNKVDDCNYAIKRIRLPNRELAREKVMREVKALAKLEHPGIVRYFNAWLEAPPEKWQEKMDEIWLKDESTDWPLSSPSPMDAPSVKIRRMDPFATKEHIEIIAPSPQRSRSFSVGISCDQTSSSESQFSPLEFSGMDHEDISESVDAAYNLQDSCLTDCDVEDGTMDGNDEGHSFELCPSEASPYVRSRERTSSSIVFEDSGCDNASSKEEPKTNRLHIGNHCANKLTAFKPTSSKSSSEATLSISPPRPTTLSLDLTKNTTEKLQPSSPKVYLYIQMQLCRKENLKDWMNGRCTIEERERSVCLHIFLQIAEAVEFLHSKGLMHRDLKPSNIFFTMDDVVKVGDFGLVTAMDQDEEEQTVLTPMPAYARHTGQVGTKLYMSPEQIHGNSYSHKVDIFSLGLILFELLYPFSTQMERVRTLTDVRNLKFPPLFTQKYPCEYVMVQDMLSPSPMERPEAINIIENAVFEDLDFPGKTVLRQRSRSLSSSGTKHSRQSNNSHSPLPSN
Method: as §6

p-ERK = experiment: FLT3-ITD downstream signaling, p-ERK western blot in MV4-11 cells; type: cell-based; details: Homo sapiens, normalized to Crenolanib, read-out: pERK IC50
Method: as §1, §2, §3, §4

Kasumi-1 (FLT3wt) = experiment: Cell viability assay, Kasumi-1; type: cell-based; details: Homo sapiens
HRI = target: T3, HRI (Homo sapiens, UniProt Q9BQI3); experiment: ISR kinase cell-free biochemical assay (Carna), HRI; details: ATP 30 µM
T3 construct: purchased Carna 05-154
T3 sequence (Q9BQI3 whole entry): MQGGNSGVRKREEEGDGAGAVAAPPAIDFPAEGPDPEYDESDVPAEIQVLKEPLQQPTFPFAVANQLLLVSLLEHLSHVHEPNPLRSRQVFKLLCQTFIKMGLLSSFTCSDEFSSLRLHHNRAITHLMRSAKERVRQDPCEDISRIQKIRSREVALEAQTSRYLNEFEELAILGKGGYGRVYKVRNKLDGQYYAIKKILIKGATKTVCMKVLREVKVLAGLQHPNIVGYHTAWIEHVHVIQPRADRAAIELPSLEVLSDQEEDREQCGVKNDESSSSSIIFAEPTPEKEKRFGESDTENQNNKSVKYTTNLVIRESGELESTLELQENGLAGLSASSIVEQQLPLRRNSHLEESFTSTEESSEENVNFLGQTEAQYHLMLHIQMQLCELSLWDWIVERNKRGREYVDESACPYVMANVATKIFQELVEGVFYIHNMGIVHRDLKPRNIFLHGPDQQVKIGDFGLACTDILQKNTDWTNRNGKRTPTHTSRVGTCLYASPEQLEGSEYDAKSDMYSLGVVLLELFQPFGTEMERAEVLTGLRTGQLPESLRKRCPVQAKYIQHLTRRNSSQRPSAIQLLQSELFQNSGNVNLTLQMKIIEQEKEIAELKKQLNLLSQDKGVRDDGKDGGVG
Method: as §6

In the case of `Cc1nc(N)c2c(-c3ccc(NC(=O)[C@H](O)c4cccc(C(F)(F)F)c4)cc3C)cn(C)c2n1` [Compound 26], the IC50 (p-STAT5) is reported as 64 nM, the “exposure in plasma and pancreas” value [1] is reported as “dose-proportionate exposure” and the IC50 (MOLM-13 (FLT3-ITD)) is reported as 311 nM. For the same compound, the IC50 (GCN2) was greater than 10000 nM, the IC50 (MV4-11 (FLT3-ITD)) was 226 nM and the “inhibition of pPERK/PERK in pancreas” value (phosphoPERK (T980)) was “approximately 80%”. The IC50 (PERK) was 4.7 nM, the IC50 (p-ERK) was 551 nM and the IC50 (Kasumi-1 (FLT3wt)) was greater than 10000 nM. For the same compound, the IC50 (HRI) was greater than 10000 nM.
